Laboratory results from patent US8101601B2, “Aminoacyl prodrug derivatives and medicaments for the treatment of thromboembolitic disorders” (Bayer Pharma Aktiengesellschaft, priority 2007, dated 2012).
Structures can show the parent of a compound that is named as a salt.

How the values were obtained:
[1] = Stability in buffer at various pH values (HPLC, 37° C., 24 h); format: physicochemical
Method: 0.3 mg of the test substance is weighed into a 2 ml HPLC vial and 0.5 ml of acetonitrile is added. The substance is dissolved by putting the sample vessel in an ultrasonic bath for about 10 seconds. Then 0.5 ml of the respective buffer solution is added, and the sample is again treated in the ultrasonic bath.
• pH 4.0:1 liter of Millipore water is adjusted to pH 4.0 with 1 N hydrochloric acid; • pH 7.4: 90 g of sodium chloride, 13.61 g of potassium dihydrogen phosphate and 83.35 g of 1 M sodium hydroxide solution are made up to 1 liter with Millipore water and then diluted 1:10.
5 μl portions of the test solution are analysed by HPLC for their content of unchanged test substance every hour over a period of 24 hours at 37° C. The percentage areas of the appropriate peaks are used for quantification.
Agilent 1100 with DAD (G1314A), binary pump (G1312A), autosampler (G1329A), column oven (G1316A), thermostat (G1330A); column: Kromasil 100 C18, 125 mm×4.6 mm, 5 μm; column temperature: 30° C.; eluent A: water+5 ml of perchloric acid/liter, eluent B: acetonitrile.
The ratios of the peak areas (F) at the respective time points in relation to the peak areas at the starting time are shown in Table 2 for representative exemplary embodiments: […]

[2] = In vitro stability in rat plasma (HPLC detection); format: in vitro ADME; conditions: 37° C., read-out: half-life of degradation to liberate compound (A)
Method: 1 mg of substance is dissolved in 1.25 ml of dimethyl sulphoxide. Then 1.25 ml of water are added. 500 μl of this sample solution are mixed with 500 μl of rat plasma at 37° C. and shaken. A first sample (10 μl) is immediately taken for HPLC analysis. In the period up to 2 h after the start of incubation, further aliquots are taken after 2, 5, 10, 30, 60 and 90 min, and the content of the respective test substance and of the active ingredient compound (A) liberated therefrom is determined.
Agilent 1100 with DAD (G1314A), binary pump (G1312A), autosampler (G1329A), column oven (G1316A), thermostat (G1330A); column: Kromasil 100 C18, 250 mm×4.6 mm, 5 μm; column temperature: 30° C.; eluent A: water+5 ml of perchloric acid/liter, eluent B: acetonitrile.

[3] = Determination of the solubility (suspension shaken 24 h at room temperature, HPLC); format: physicochemical; conditions: thermodynamic from solid
Method: […] This suspension is shaken at room temperature for 24 h. After ultracentrifugation at 224 000 g for 30 min, the supernatant is diluted with DMSO and analysed by HPLC. A two-point calibration plot of the test compound in DMSO is used for quantification.
Agilent 1100 with DAD (G1315A), quat. pump (G1311A), autosampler CTC HTS PAL, degasser (G1322A) and column thermostat (G1316A); column: Zorbax Extend-C18 3.5μ; temperature: 40° C.; eluent A: water+5 ml of perchloric acid/liter, eluent B: acetonitrile; flow rate: 0.7 ml/min; gradient: 0-0.5 min 98% A, 2% B; ramp 0.5-4.5 min 10% A, 90% B; 4.5-6 min 10% A, 90% B; ramp 6.5-6.7 min 98% A, 2% B; 6.7-7.5 min 98% A, 2% B.

[4] = 5% dextrose adjusted to pH 4 with hydrochloric acid, pH 4, saline or isotonic
[5] = dilute hydrochloric acid (pH 4), pH 4, aqueous buffer, room temperature, 24 h
[6] = buffer pH 4, 37° C., hydrobromide
[7] = buffer pH 4, 37° C., hydrochloride

| % test substance after 4 h [F(t = 4 h) × 100/F(t = 0 h)] ([1]; buffer pH 4, 37° C.) | % Test substance after 24 h [F(t = 24 h) × 100/F(t = 0 h)] ([1]; buffer pH 4, 37° C.) | half-life at 0.2 mg/ml [2] | solubility at 24 h [3, 4] | % test substance after 4 h [F(t = 4 h) × 100/F(t = 0 h)] ([1]; buffer pH 7.4, 37° C.) | % Test substance after 24 h [F(t = 24 h) × 100/F(t = 0 h)] ([1]; buffer pH 7.4, 37° C.) | solubility at 24 h [3, 5] | % test substance after 4 h [F(t = 4 h) × 100/F(t = 0 h)] [1, 6] | % Test substance after 24 h [F(t = 24 h) × 100/F(t = 0 h)] [1, 6] | % test substance after 4 h [F(t = 4 h) × 100/F(t = 0 h)] [1, 7] | % Test substance after 24 h [F(t = 24 h) × 100/F(t = 0 h)] [1, 7] | SMILES |
| --- | --- | --- | --- | --- | --- | --- | --- | --- | --- | --- | --- |
| 100% | 98% | < 2 min | > 3000 µg/mL | – | – | – | – | – | – | – | CCCCNCCCC(=O)N(C[C@H]1CN(c2ccc(N3CCOCC3=O)cc2)C(=O)O1)C(=O)c1ccc(Cl)s1 [Example 22, N-[4-(Butylamino)butanoyl]-5-chloro-N-({(5S)-2-oxo-3-[4-(3-oxomorpholin-4-yl)phenyl]-1,3-oxazolidin-5-yl}methyl)thiophene-2-carboxamide hydrochloride] |
| – | – | < 2 min | – | – | – | – | – | – | – | – | NCCOCC(=O)N(C[C@H]1CN(c2ccc(N3CCOCC3=O)cc2)C(=O)O1)C(=O)c1ccc(Cl)s1 [Example 23, N-[(2-Aminoethoxy)acetyl]-5-chloro-N-({(5S)-2-oxo-3-[4-(3-oxomorpholin-4-yl)phenyl]-1,3-oxazolidin-5-yl}methyl)thiophene-2-carboxamide hydrochloride] |
| 100% | 99% | – | – | 48% | 3% | 340 µg/mL | – | – | – | – | NCCCC[C@H](N)C(=O)OCC(=O)N(C[C@H]1CN(c2ccc(N3CCOCC3=O)cc2)C(=O)O1)C(=O)c1ccc(Cl)s1 [Example 7, 2-[[(5-Chloro-2-thienyl)carbonyl]({(5S)-2-oxo-3-[4-(3-oxomorpholin-4-yl)phenyl]-1,3-oxazolidin-5-yl}methyl)amino]-2-oxoethyl L-lysinate dihydrochloride] |
| 100% | 100% | – | – | 31% | 0% | 480 µg/mL | – | – | – | – | O=C(OCC(=O)N(C[C@H]1CN(c2ccc(N3CCOCC3=O)cc2)C(=O)O1)C(=O)c1ccc(Cl)s1)[C@@H]1CCCN1 [Example 4, 2-[[(5-Chloro-2-thienyl)carbonyl] ({(5S)-2-oxo-3-[4-(3-oxomorpholin-4-yl)phenyl]-1,3-oxazolidin-5-yl}methyl)amino]-2-oxoethyl L-prolinate hydrochloride] |
| 100% | 100% | – | > 3000 µg/mL | 92% | 66% | – | – | – | – | – | NCCCCCC(=O)N(C[C@H]1CN(c2ccc(N3CCOCC3=O)cc2)C(=O)O1)C(=O)c1ccc(Cl)s1 [Example 21, N-(6-Aminohexanoyl)-5-chloro-N-({(5S)-2-oxo-3-[4-(3-oxomorpholin-4-yl)phenyl]-1,3-oxazolidin-5-yl}methyl)thiophene-2-carboxamide hydrochloride] |
| – | – | – | – | 0% | 0% | 350 µg/mL | 100% | 98% | – | – | CNCCCC(=O)N(C[C@H]1CN(c2ccc(N3CCOCC3=O)cc2)C(=O)O1)C(=O)c1ccc(Cl)s1 [Example 12, 5-Chloro-N-[4-(methylamino)butanoyl]-N-({(5S)-2-oxo-3-[4-(3-oxomorpholin-4-yl)phenyl]-1,3-oxazolidin-5-yl}methyl)thiophene-2-carboxamide hydrobromide] |
| 100% | 94% | – | – | 68% | 14% | 330 µg/mL | – | – | – | – | CNCC(=O)OCC(=O)N(C[C@H]1CN(c2ccc(N3CCOCC3=O)cc2)C(=O)O1)C(=O)c1ccc(Cl)s1 [Example 5, 2-[[(5-Chloro-2-thienyl)carbonyl]({(5S)-2-oxo-3-[4-(3-oxomorpholin-4-yl)phenyl]-1,3-oxazolidin-5-yl}methyl)amino]-2-oxoethyl N-methylglycinate hydrochloride] |
| 98% | 90% | < 2 min | > 3000 µg/mL | 0% | 0% | – | – | – | – | – | NCCCCC(=O)N(C[C@H]1CN(c2ccc(N3CCOCC3=O)cc2)C(=O)O1)C(=O)c1ccc(Cl)s1 [Example 20, N-(5-Aminopentanoyl)-5-chloro-N-({(5S)-2-oxo-3-[4-(3-oxomorpholin-4-yl)phenyl]-1,3-oxazolidin-5-yl}methyl)thiophene-2-carboxamide hydrochloride] |
| 100% | 99% | – | – | 88% | 48% | 340 µg/mL | – | – | – | – | CC(C)[C@H](N)C(=O)OCC(=O)N(C[C@H]1CN(c2ccc(N3CCOCC3=O)cc2)C(=O)O1)C(=O)c1ccc(Cl)s1 [Example 3, 2-[[(5-Chloro-2-thienyl)carbonyl]({(5S)-2-oxo-3-[4-(3-oxomorpholin-4-yl)phenyl]-1,3-oxazolidin-5-yl}methyl)amino]-2-oxoethyl L-valinate hydrochloride] |
| – | – | < 2 min | – | – | – | – | – | – | 83% | 55% | CNCCCCC(=O)N(C[C@H]1CN(c2ccc(N3CCOCC3=O)cc2)C(=O)O1)C(=O)c1ccc(Cl)s1 [Example 17, 5-Chloro-N-[5-(methylamino)pentanoyl]-N-({(5S)-2-oxo-3-[4-(3-oxomorpholin-4-yl)phenyl]-1,3-oxazolidin-5-yl}methyl)thiophene-2-carboxamide hydrochloride] |
| 100% | 100% | – | – | 96% | 80% | > 500 µg/mL | – | – | – | – | CC(C)(N)C(=O)OCC(=O)N(C[C@H]1CN(c2ccc(N3CCOCC3=O)cc2)C(=O)O1)C(=O)c1ccc(Cl)s1 [Example 2, 2-[[(5-Chloro-2-thienyl)carbonyl]({(5S)-2-oxo-3-[4-(3-oxomorpholin-4-yl)phenyl]-1,3-oxazolidin-5-yl}methyl)amino]-2-oxoethyl-2-methylalaninate hydrochloride] |
| 100% | 99% | – | – | 49% | 3% | 320 µg/mL | – | – | – | – | NCC(=O)OCC(=O)N(C[C@H]1CN(c2ccc(N3CCOCC3=O)cc2)C(=O)O1)C(=O)c1ccc(Cl)s1 [Example 1, 2-[[(5-Chloro-2-thienyl)carbonyl]({(5S)-2-oxo-3-[4-(3-oxomorpholin-4-yl)phenyl]-1,3-oxazolidin-5-yl}methyl)amino]-2-oxoethyl glycinate hydrochloride] |
